Test results from patent US20100099561A1, “HETEROBICYCLIC ALKYLTHIO-BRIDGED ISOXAZOLINES” (E.I. DU PONT DE NEMOURS AND COMPANY, priority 2008, published 2010).

How the values were obtained:
Format in all cases: in vivo
[1] = test system: gallium, (catchweed bedstraw, Galium aparine); test: Test C preemergence, galium; settings: 21 days, scale 0 to 100
Text: (§1) Seeds of plant species selected from annual bluegrass (Poa annua), blackgrass (Alopecurus myosuroides), canarygrass (Phalaris minor), gallium, (catchweed bedstraw, Galium aparine), chickweed (Stellaria media), downy bromegrass (Bromus tectorum), field poppy (Papaver rhoeas), field violet (Viola arvensis), green foxtail (Setaria viridis), deadnettle (henbit deadnettle, Lamium amplexicaule), Italian ryegrass (Lolium multiflorum), kochia (Kochia scoparia), lambsquarters (Chenopodium album), oilseed rape (Brassica napus), pigweed (Amaranthus retroflexus), Russian thistle (Salsola kali), spring barley (Hordeum vulgare), spring wheat (Triticum aestivum), wild buckwheat (Polygonum convolvulus), wild mustard (Sinapis arvensis), wild oat (Avena fatua), wild radish (Raphanus raphanistrum), windgrass (Apera spica-venti), winter barley (Hordeum vulgare), and winter wheat (Triticum aestivum) were planted and treated preemergence with test chemicals formulated in a non-phytotoxic solvent mixture which included a surfactant.
(§2) Treated plants and controls were maintained in a controlled growth environment for 21 days after which time all species were compared to controls and visually evaluated. Plant response ratings, summarized in Table C, are based on a scale of 0 to 100 where 0 is no effect and 100 is complete control. A dash (-) response means no test result.

[2] = test system: downy bromegrass (Bromus tectorum); test: Test C preemergence, downy bromegrass; settings: 21 days, scale 0 to 100
Text: as §1, §2

[3] = test system: field poppy (Papaver rhoeas); test: Test C preemergence, field poppy; settings: 21 days, scale 0 to 100
Text: as §1, §2

[4] = test system: winter barley (Hordeum vulgare); test: Test C preemergence, winter barley; settings: 21 days, scale 0 to 100
Text: as §1, §2

[5] = test system: chickweed (Stellaria media); test: Test C preemergence, chickweed; settings: 21 days, scale 0 to 100
Text: as §1, §2

[6] = test system: catchweed bedstraw (Galium aparine); test: Test B preemergence, catchweed bedstraw; settings: scale 0 to 100
Text: (§3) Seeds of plant species selected from blackgrass (Alopecurus myosuroides), downy bromegrass (Bromus tectorum), green foxtail (Setaria viridis), Italian ryegrass (Lolium multiflorum), wheat (Triticum aestivum), wild oat (Avena fatua), catchweed bedstraw (Galium aparine), bermudagrass (Cynodon dactylon), Surinam grass (Brachiaria decumbens), cocklebur (Xanthium strumarium), corn (Zea mays), large crabgrass (Digitaria sanguinalis), woolly cupgrass (Eriochloa villosa), giant foxtail (Setaria faberii), goosegrass (Eleusine indica), johnsongrass (Sorghum halepense), kochia (Kochia scoparia), lambsquarters (Chenopodium album), morningglory (Ipomoea coccinea), nightshade (eastern black nightshade, Solanum ptycanthum), yellow nutsedge (Cyperus esculentus), pigweed (Amaranthus retroflexus), ragweed (common ragweed, Ambrosia elatior), soybean (Glycine max), sunflower (common oilseed sunflower, Helianthus annuus), Russian thistle (Salsola kali), and velvetleaf (Abutilon theophrasti) were planted into a blend of loam soil and sand and treated preemergence with test compounds formulated in a non-phytotoxic solvent mixture which included a surfactant. Treated plants and controls were maintained in a greenhouse for 13 to 15 days, after which time all species were compared to controls and visually evaluated. Plant response ratings, summarized in Table B, are based on a scale of 0 to 100 where 0 is no effect and 100 is complete control. A dash (-) response means no test result.

[7] = test system: pigweed (Amaranthus retroflexus); test: Test C preemergence, pigweed; settings: 21 days, scale 0 to 100
Text: as §1, §2

[8] = test system: yellow nutsedge (Cyperus esculentus); test: Test B preemergence, yellow nutsedge; settings: scale 0 to 100
Text: as §3

[9] = test system: pigweed (Amaranthus retroflexus); test: Test A preemergence, pigweed; settings: 0 to 100 scale (0 no effect, 100 complete control)
How it was run: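 Visual injury scored 0 (no effect) to 100 (complete control) against untreated plants roughly ten days after greenhouse treatment. Postemergence sprays hit one- to two-leaf plants 2–10 cm high; preemergence was a directed spray onto loam–sand soil, both using surfactant-containing solvent formulations.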

[10] = test system: canarygrass (Phalaris minor); test: Test C preemergence, canarygrass; settings: 21 days, scale 0 to 100
Text: as §1, §2

wild oat (Avena fatua) = test: Test C preemergence, wild oat; settings: 21 days, scale 0 to 100
Text: as §1, §2

[11] = test system: wheat (Triticum aestivum); test: Test B preemergence, wheat; settings: Preemergence, scale 0 to 100
Text: as §3

[12] = test system: wild mustard (Sinapis arvensis); test: Test C preemergence, wild mustard; settings: 21 days, scale 0 to 100
Text: as §1, §2

[13] = test system: Russian thistle (Salsola kali); test: Test B preemergence, Russian thistle; settings: scale 0 to 100
Text: as §3

## CC1(C)CC(S(=O)(=O)Cc2c(C(F)(F)F)nc3n(c2=O)CCS3)=NO1 [Compound 6]
[1]; 31 g ai/ha
  Plant response rating, Galium: 0
[1]; 62 g ai/ha
  Plant response rating, Galium: 0
[1]; 125 g ai/ha
  Plant response rating, Galium: 0
[1]; 250 g ai/ha
  Plant response rating, Galium: 0
[2]; 31 g ai/ha
  Plant response rating, Bromegrass, Downy: 0
[2]; 62 g ai/ha
  Plant response rating, Bromegrass, Downy: 0
[2]; 125 g ai/ha
  Plant response rating, Bromegrass, Downy: 25
[2]; 250 g ai/ha
  Plant response rating, Bromegrass, Downy: 35
[3]; 31 g ai/ha
  Plant response rating, Field Poppy: 40
[3]; 62 g ai/ha
  Plant response rating, Field Poppy: 50
[3]; 125 g ai/ha
  Plant response rating, Field Poppy: 90
[3]; 250 g ai/ha
  Plant response rating, Field Poppy: 100
[4]; 31 g ai/ha
  Plant response rating, Barley, Winter: 0
[4]; 62 g ai/ha
  Plant response rating, Barley, Winter: 0
[4]; 125 g ai/ha
  Plant response rating, Barley, Winter: 15
[4]; 250 g ai/ha
  Plant response rating, Barley, Winter: 20
[5]; 31 g ai/ha
  Plant response rating, Chickweed: 0
[5]; 62 g ai/ha
  Plant response rating, Chickweed: 0
[5]; 125 g ai/ha
  Plant response rating, Chickweed: 0
[5]; 250 g ai/ha
  Plant response rating, Chickweed: 50
[6]; 16 g ai/ha
  Plant response rating, Galium: 0
[6]; 31 g ai/ha
  Plant response rating, Galium: 50
[6]; 62 g ai/ha
  Plant response rating, Galium: 50
[6]; 125 g ai/ha
  Plant response rating, Galium: 100
[7]; 31 g ai/ha
  Plant response rating, Pigweed: 0
[7]; 62 g ai/ha
  Plant response rating, Pigweed: 0
[7]; 125 g ai/ha
  Plant response rating, Pigweed: 0
[7]; 250 g ai/ha
  Plant response rating, Pigweed: 100
[8]; 16 g ai/ha
  Plant response rating, Nutsedge, Yellow: 0
[8]; 31 g ai/ha
  Plant response rating, Nutsedge, Yellow: 0
[8]; 62 g ai/ha
  Plant response rating, Nutsedge, Yellow: 0
[8]; 125 g ai/ha
  Plant response rating, Nutsedge, Yellow: 45
[9]; 125 g ai/ha
  Plant response rating, Pigweed: 60
[9]; 500 g ai/ha
  Plant response rating, Pigweed: 100
[10]; 125 g ai/ha
  Plant response rating, Canarygrass: 35
Wild oat (Avena fatua); 31 g ai/ha
  Plant response rating, Oat, Wild: 20
Wild oat (Avena fatua); 62 g ai/ha
  Plant response rating, Oat, Wild: 25
Wild oat (Avena fatua); 125 g ai/ha
  Plant response rating, Oat, Wild: 25
Wild oat (Avena fatua); 250 g ai/ha
  Plant response rating, Oat, Wild: 30
[11]; 16 g ai/ha
  Plant response rating, Wheat: 0
[11]; 31 g ai/ha
  Plant response rating, Wheat: 0
[11]; 62 g ai/ha
  Plant response rating, Wheat: 0
[11]; 125 g ai/ha
  Plant response rating, Wheat: 0
[12]; 31 g ai/ha
  Plant response rating, Mustard, Wild: 0
[12]; 62 g ai/ha
  Plant response rating, Mustard, Wild: 0
[12]; 125 g ai/ha
  Plant response rating, Mustard, Wild: 0
[12]; 250 g ai/ha
  Plant response rating, Mustard, Wild: 0

## CC1(C)CC(S(=O)(=O)Cc2c(C(F)(F)F)nc3n(c2=O)CCCC3)=NO1 [Compound 8, 3-[[(4,5-dihydro-5,5-dimethyl-3-isoxazolyl)sulfonyl]methyl]-6,7,8,9-tetrahydro-2-(trifluoromethyl)-4H-pyrido[1,2-α]pyrimidin-4-one]
[1]; 16 g ai/ha
  Plant response rating, Galium: 0
[1]; 31 g ai/ha
  Plant response rating, Galium: 0
[1]; 62 g ai/ha
  Plant response rating, Galium: 0
[1]; 125 g ai/ha
  Plant response rating, Galium: 0
[2]; 16 g ai/ha
  Plant response rating, Bromegrass, Downy: 0
[2]; 31 g ai/ha
  Plant response rating, Bromegrass, Downy: 0
[2]; 62 g ai/ha
  Plant response rating, Bromegrass, Downy: 0
[2]; 125 g ai/ha
  Plant response rating, Bromegrass, Downy: 0
[3]; 16 g ai/ha
  Plant response rating, Field Poppy: 0
[3]; 31 g ai/ha
  Plant response rating, Field Poppy: 0
[3]; 62 g ai/ha
  Plant response rating, Field Poppy: 50
[3]; 125 g ai/ha
  Plant response rating, Field Poppy: 75
[13]; 16 g ai/ha
  Plant response rating, Russian Thistle: 0
[13]; 31 g ai/ha
  Plant response rating, Russian Thistle: 0
[13]; 62 g ai/ha
  Plant response rating, Russian Thistle: 0
[13]; 125 g ai/ha
  Plant response rating, Russian Thistle: 0
[4]; 16 g ai/ha
  Plant response rating, Barley, Winter: 0
[4]; 31 g ai/ha
  Plant response rating, Barley, Winter: 0
[4]; 62 g ai/ha
  Plant response rating, Barley, Winter: 0
[4]; 125 g ai/ha
  Plant response rating, Barley, Winter: 0
[5]; 16 g ai/ha
  Plant response rating, Chickweed: 0
[5]; 31 g ai/ha
  Plant response rating, Chickweed: 0
[5]; 62 g ai/ha
  Plant response rating, Chickweed: 0
[5]; 125 g ai/ha
  Plant response rating, Chickweed: 40
[6]; 16 g ai/ha
  Plant response rating, Galium: 0
[6]; 31 g ai/ha
  Plant response rating, Galium: 0
[6]; 62 g ai/ha
  Plant response rating, Galium: 100
[6]; 125 g ai/ha
  Plant response rating, Galium: 100
[7]; 16 g ai/ha
  Plant response rating, Pigweed: 0
[7]; 31 g ai/ha
  Plant response rating, Pigweed: 0
[7]; 62 g ai/ha
  Plant response rating, Pigweed: 0
[7]; 125 g ai/ha
  Plant response rating, Pigweed: 0
[8]; 16 g ai/ha
  Plant response rating, Nutsedge, Yellow: 0
[8]; 31 g ai/ha
  Plant response rating, Nutsedge, Yellow: 20
[8]; 62 g ai/ha
  Plant response rating, Nutsedge, Yellow: 60
[8]; 125 g ai/ha
  Plant response rating, Nutsedge, Yellow: 80
[9]; 125 g ai/ha
  Plant response rating, Pigweed: 30
[9]; 500 g ai/ha
  Plant response rating, Pigweed: 100
[10]; 16 g ai/ha
  Plant response rating, Canarygrass: 0
[10]; 31 g ai/ha
  Plant response rating, Canarygrass: 0
[10]; 62 g ai/ha
  Plant response rating, Canarygrass: 0
[10]; 125 g ai/ha
  Plant response rating, Canarygrass: 20
Wild oat (Avena fatua); 16 g ai/ha
  Plant response rating, Oat, Wild: 0
Wild oat (Avena fatua); 31 g ai/ha
  Plant response rating, Oat, Wild: 0
Wild oat (Avena fatua); 62 g ai/ha
  Plant response rating, Oat, Wild: 0
Wild oat (Avena fatua); 125 g ai/ha
  Plant response rating, Oat, Wild: 0
[11]; 16 g ai/ha
  Plant response rating, Wheat: 0
[11]; 31 g ai/ha
  Plant response rating, Wheat: 0
[11]; 62 g ai/ha
  Plant response rating, Wheat: 0
[11]; 125 g ai/ha
  Plant response rating, Wheat: 40
[12]; 16 g ai/ha
  Plant response rating, Mustard, Wild: 0
[12]; 31 g ai/ha
  Plant response rating, Mustard, Wild: 0
[12]; 62 g ai/ha
  Plant response rating, Mustard, Wild: 30
[12]; 125 g ai/ha
  Plant response rating, Mustard, Wild: 100
